Data reported in US12139488B2, “Pyrido[3,2-d]pyrimidine compounds uses thereof for treating a proliferative disease” (Universite de Montreal, priority 2021, dated 2024).

Tests used:
[1] = test system: pERK in RAS-mutant cancer cell lines; test: Phospho-ERK inhibition (AlphaLISA), panel of RAS-mutant cancer cell lines; assay type: cell-based, human; settings: in 10 of the 13 RAS-mutant cell lines tested
Procedure: All cancer cell lines (A375, A101D, A2058, RKO, HT29 SK-MEL 30, IPC298, HepG2, HCT-116, Lovo, SWV620, SW480, NCI-H358, NCI-H2122, Calu-6, NCIH2087, NCIH1755, NCIH1666 and Mewo) were obtained from ATCC and cultured in RPMI-1640 medium (Gibco) supplemented with 5% heat inactivated fetal bovine serum (FBS, Wisent) at 37° C. under 5% CO2. Cells were maintained in T175 flasks (Greiner). They were passaged by removing the culture medium, washing once in 10 mL of room temperature Phosphate Buffered Saline (PBS; Wisent) and incubating at 37° C. with 2 mL of 0.05% Trypsin (Thermo-Fisher). […]
After treatment, media was removed and cells were lysed in 50 μL of 1× AlphaScreen Ultra Lysis Buffer (Perkin Elmer). […] After completion of the reactions, the signals were recorded on an EnVision plate reader (Perkin Elmer) using built in AlphaLISA® settings.
The effect of each compound dilution on the pERK signal was expressed in % inhibition and calculated as follows. […]
The ability of each compound to inhibit pERK signal was expressed as an IC50 value obtained by plotting the inhibition values for each data point of a dilution series and fitting the obtained curves using a log(agonist) versus response-variable slope (four parameters) function using GraphPadPrism (V7.0) or Dotmatics Screening Ultra platform. […]

[2] = test system: pERK and pMEK in RAS-mutant HCT-116 cells; test: Immunoblot analysis of pERK and pMEK in HCT-116 cells; assay type: cell-based, human; settings: 1 h treatment, FIG. 2
Procedure: For immunoblotting analysis, 500,000 HCT-116 cells were plated in 1 mL of complete RPMI-1640 growth medium in 24-well flat-bottomed transparent dishes (Costar). Cells were maintained overnight at 37° C. under 5% CO2 before treatment with compounds' dilution series for one hour.
Cells were then washed once in PBS and lized in 250 μL of Igepal Lysis Buffer (50 mM Tris-HCl pH 7.5, 150 mM NaCl, 1% Igepal-CA630, 1 mM EDTA, 10% Glycerol) supplemented with Leupeptin, Aprotinin, PMSF, phosphatase inhibitor cocktail (Sigma) and Na3VO4 at 4° C. for 15 minutes with gentle rocking. Cell extracts were then cleared by centrifugation at 20,000 g at 4° C. for 10 minutes. Cleared lysates were then transferred on ice in fresh tubes and then boiled in sample loading buffer (100 mM Tris-HCl pH 6.8, 4% SDS, 0.2% bromophenol blue, 20% glycerol, 200 mM p-mercaptoethanol) for 5 minutes prior to fractionation by SDS-PAGE and transfer to nitrocellulose membranes (PALL). […]

Structure (SMILES)	YMIN of pERK IC50 curves [1] [%]	paradoxical induction of pERK or pMEK signaling (immunoblot) [2]
Cc1ccc2c(Nc3cccc(Cl)c3F)nccc2c1NC(=O)c1csc2c(N)ncnc12 [Belvarafenib, reference compound]	< −30	
Nc1cccc2c1ncn2-c1ccc2ncnc(Nc3c(F)ccc(NS(=O)(=O)c4cccc(Cl)c4Cl)c3F)c2n1 [Example 99]		does not induce paradoxical induction of pERK or pMEK signaling
